The text below walks through data of patent US7309702B2, “Arylpiperazines having activity at the serotonin 1A receptor” (Avera Pharmaceuticals, Inc., priority 1997, dated 2007).

The term melting point denotes the temperature, or range, at which the solid turns liquid.

Structures can show the parent of a compound that is named as a salt.

For the compound `COc1ccccc1N1CCN(CCC(C(=O)C2CCCCCC2)c2ccccc2)CC1` (centres unmarked) (as salt: hydrochloride) [Example 6, 1-(2-methoxyphenyl)-4-[3-(cycloheptanecarbonyl)-3-(phenyl)propyl]piperazine dihydrochloride], the melting point lay in the range of 193 to 194 °C.

Compound `COc1ccccc1N1CCN(CCC(C(=O)C2CCCC2)c2ccccc2)CC1` (centres unmarked) (as salt: hydrochloride) [Example 7, 1-(2-methoxyphenyl)-4-[3-(cyclopentanecarbonyl)-3-(phenyl)propyl]piperazine dihydrochloride] came in with a melting point of 210 to 212 °C.

In turn, `COc1ccccc1N1CCN(CCC(C(=O)c2ccccc2)c2ccccc2)CC1.O=C(O)C(=O)O` (centres unmarked) [Example 1, 1-(2-methoxyphenyl)-4-[3-(benzoyl)-3-(phenyl)propyl]piperazine Oxalate] had a melting point of 161 to 163 °C.

In the case of `COc1ccccc1N1CCN(CCC(C(=O)C2CCCCC2)c2ccccc2)CC1.O=C(O)C(=O)O` (centres unmarked) [Example 2, 1-(2-methoxyphenyl)-4-[3-(cyclohexanecarbonyl)-3-(phenyl)propyl]piperazine oxalate], the melting point was 149 to 151 °C.

The compound `O=C(C1CCCCC1)C(CCN1CCN(c2ccccn2)CC1)c1ccccc1.O=C(O)C(=O)O` (centres unmarked) [Example 3, 1-(2-pyridyl)-4-[3-(cyclohexanecarbonyl)-3-(phenyl)propyl]piperazine oxalate] had a melting point of 185 to 187 °C.

Compound `COc1ccccc1N1CCN(CCC(C)(C(=O)c2ccccc2)c2ccccc2)CC1.O=C(O)C(=O)O` (centres unmarked) [Example 5, 1-(2-methoxyphenyl)-4-[3-(benzoyl)-3-(phenyl)butyl]piperazine oxalate] gave a melting point of 192 to 193 °C.

`COc1ccccc1N1CCN(CCC(c2ccccc2)C(O)C2CCCCC2)CC1.O=C(O)C(=O)O` (centres unmarked) [Example 8, 1-(2-methoxyphenyl)-4-[4-(cyclohexyl)-4-(hydroxy)-3-(phenyl)butyl]piperazine oxalate] came in with a melting point of 100 to 102 °C.

In turn, `COc1ccccc1N1CCN(CCC(C)(C(=O)C2CCCCC2)c2ccccc2)CC1` (centres unmarked) [Example 9, 1-(2-methoxyphenyl)-4-[3-(cyclohexanecarbonyl)-3-(phenyl)butyl]piperazine] yielded a melting point of 192.81 °C.
